Results: PubChem BioAssay AID2060893 (Molecular Pharmacology Branch, DTP, NCI, 2025)

Tested on: K86415-001-R-J1-PDC complex spheroids, viability
Test: Anticancer human tumor K86415-001-R-J1-PDC patient-derived lung adenocarcinoma cell line growth inhibition [RAS]
Details: for IC50: curve of first compound; for viability, T/C: stronger effect = lower value; active means viability on the fitted dose curve at most 10% of control; inactive means the rest
Source text: RAS pathway inhibitors in Combinations in Complex Spheroids
A high-throughput screen of multi-cell type tumor spheroids was designed to identify active combinations of RAS pathway inhibitors and targeted small molecules. Complex spheroids include a stromal component modeled by human endothelial cells (HUVEC) and fibroblasts modeled by human mesenchymal stem cells (MSCs). The concentration ranges selected for each drug and investigational agent were based upon clinically achievable concentrations if the clinical Cmax of the agent was known.
Compounds. The drugs and investigational agents: abemaciclib (NSC768073), cobimetinib (NSC768068), divarasib (GDC6063, NSC841802), docetaxel (NSC628503), GDC-1971 (RLY-1971, NSC841576), gemcitabine (NSC613327), inavolisib (NSC800729), ipatasertib (NSC767898), KB-0742 (NSC834161), MRTX-1133 (NSC836407), osimertinib (NSC779217), RMC-4630 (NSC839698), RMC-6236 (NSC851965), RMC-6291 (NSC852671), Ro-3306 (NSC812927), sapanisertib (NSC764658), SN-38 (NSC673596), staurosporine (NSC755774), SY5609 (NSC837396), and tovorafenib (DAY101, NSC766906), were obtained from the National Cancer Institute (NCI) Developmental Therapeutics Program Chemical Repository. The FDA-approved anticancer drug set is available from the NCI Developmental Therapeutics Program. […] The stock solutions were prepared in dimethyl sulfoxide (DMSO, Sigma-Aldrich, St. Louis, MO, cat. D2650) at 800-fold the tested concentration and stored at -70 degrees C prior to their use. All drugs and investigational agents were tested over a range starting from a high concentration at or near the clinical Cmax and decreasing in half-log increments. If the clinical Cmax for an agent had not been determined, the highest concentration tested was 10 microM.
Cell Culture. All cells were maintained in an incubator at 37 degrees C and 5% CO2 with 95% humidity. The PDC lines were cultured according to standard operating procedures established by the NCI PDMR. All PDCs were thawed and cultured in Matrigel-coated flasks prepared with a working solution of 1X Ham's F-12 nutrient mix, without supplementation (Invitrogen, Waltham, MA, cat. 11765054), 100 U/mL penicillin-streptomycin (Invitrogen, cat. 15140122), and 2.5% Matrigel (Corning Inc., Corning, NY, cat. 354248) for the first three passages. The 362531-283-R-J2-PDC and 782815-120-R-J1-PDC lines were cultured in 6C/Colon 1B media, which includes advanced DMEM/F-12 (Thermo Fisher Scientific, cat. 12634028), 10 mM HEPES (Thermo Fisher Scientific, cat. 15630080), 1X GlutaMAX supplement (Thermo Fisher Scientific, cat. 35050061), 0.1 mg/mL primocin (InvivoGen, San Diego, CA, cat. ant-pm-2), 10% defined fetal bovine serum, heat inactivated (HyClone Laboratories Inc., Logan, UT, cat. SH30070.03HI), 50% L-WRN conditioned media (ATCC, cat. CRL-3276), 1.25 mM N-Acetyl-L-cysteine (Sigma-Aldrich, cat. A9165), 10 mM nicotinamide (Sigma-Aldrich, cat. N0636), 1X B-27 supplement (Thermo Fisher Scientific, cat. 17504044), 1X N-2 supplement (Thermo Fisher Scientific, cat. 17502048), 50 ng/mL human EGF (Thermo Fisher Scientific, cat. PHG0311), and 10 microM Y-27632 dihydrochloride (Tocris Bioscience, cat. 1254). The K12877-001-R-J1-PDC line was cultured in 6I media, which includes all 6C/Colon 1B media plus 10 ng/mL human FGF-10 (PeproTech, cat. 100-26), 1 ng/mL human FGF-2 (PeproTech, cat. 100-18B), 1 µM prostaglandin E2 (Tocris Bioscience, cat. 2296), […] hydrocortisone (Sigma-Aldrich, cat. H4001), and […] bovine insulin (Sigma-Aldrich, cat. I6634). The K86415-001-R-J1-PDC line was cultured in 6D media, which includes all 6C/Colon 1B media components minus the L-WRN conditioned media. The 485176-168-R4-J1-PDC was cultured in PANC media, which includes all 6C/Colon 1B media plus 100 ng/mL human FGF-10 (PeproTech, cat. 100-26), 500 nM SB-431542 (Selleckchem, cat. S1067), and 10 nM gastrin (Tocris Bioscience, cat. 3006). […]

[1] = second compound 0.0316 µM, first compound 0.0316 µM
[2] = second compound 0.0316 µM, first compound 0.1 µM
[3] = second compound 0.0316 µM, first compound 0.316 µM
[4] = second compound 0.0316 µM, first compound 1 µM
[5] = second compound 0.0316 µM, first compound 3.16 µM
[6] = second compound 0.0316 µM, first compound 10 µM
[7] = second compound 0.1 µM, first compound 0.0316 µM
[8] = second compound 0.1 µM, first compound 0.1 µM
[9] = second compound 0.1 µM, first compound 0.316 µM
[10] = second compound 0.1 µM, first compound 1 µM
[11] = second compound 0.1 µM, first compound 3.16 µM
[12] = second compound 0.1 µM, first compound 10 µM
[13] = second compound 0.316 µM, first compound 0.0316 µM
[14] = second compound 0.316 µM, first compound 0.1 µM
[15] = second compound 0.316 µM, first compound 0.316 µM
[16] = second compound 0.316 µM, first compound 1 µM
[17] = second compound 0.316 µM, first compound 3.16 µM
[18] = second compound 0.316 µM, first compound 10 µM
[19] = second compound 1 µM, first compound 0.0316 µM
[20] = second compound 1 µM, first compound 0.1 µM
[21] = second compound 1 µM, first compound 0.316 µM
[22] = second compound 1 µM, first compound 1 µM
[23] = second compound 1 µM, first compound 3.16 µM
[24] = second compound 1 µM, first compound 10 µM
[25] = second compound 3.16 µM, first compound 0.0316 µM
[26] = second compound 3.16 µM, first compound 0.1 µM
[27] = second compound 3.16 µM, first compound 0.316 µM
[28] = second compound 3.16 µM, first compound 1 µM
[29] = second compound 3.16 µM, first compound 3.16 µM
[30] = second compound 3.16 µM, first compound 10 µM
[31] = second compound 10 µM, first compound 0.0316 µM
[32] = second compound 10 µM, first compound 0.1 µM
[33] = second compound 10 µM, first compound 0.316 µM
[34] = second compound 10 µM, first compound 1 µM
[35] = second compound 10 µM, first compound 3.16 µM
[36] = second compound 10 µM, first compound 10 µM
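Further: spheroids exposed to agents for seven days before readout.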

CCC(CC)c1cc(NC2CCC(N)C2)n2nccc2n1 (stereo unspecified) + C#Cc1c(F)ccc2cc(O)cc(-c3ncc4c(N5CC6CCC(C5)N6)nc(OCC56CCCN5CC(F)C6)nc4c3F)c12
1050 nM: IC50 (second compound 3.16 µM)
1710 nM: IC50 (second compound 0.316 µM)
< 31.6 nM: IC50 (second compound 10 µM)
active: viability, T/C [5] 3.47% | viability, T/C [6] 3.41% | viability, T/C [11] 2.92% | viability, T/C [12] 2.14% | viability, T/C [17] 3.17% | viability, T/C [18] 3.38% | viability, T/C [23] 3.62% | viability, T/C [24] 2.6% | viability, T/C [29] 3.28% | viability, T/C [30] 2.71% | viability, T/C [36] 2.37%
inactive: viability, T/C [1] 108% | viability, T/C [2] 126% | viability, T/C [3] 109% | viability, T/C [4] 98.1% | viability, T/C [7] 99.1% | viability, T/C [8] 98.2% | viability, T/C [9] 109% | viability, T/C [10] 97.4% | viability, T/C [13] 97.1% | viability, T/C [14] 103% | viability, T/C [15] 107% | viability, T/C [16] 91.1% | viability, T/C [19] 74.2% | viability, T/C [20] 83.7% | viability, T/C [21] 85.7% | viability, T/C [22] 90.2% | viability, T/C [25] 43.4% | viability, T/C [26] 46.1% | viability, T/C [27] 50.1% | viability, T/C [28] 68.2% | viability, T/C [31] 15.4% | viability, T/C [32] 18.1% | viability, T/C [33] 24.3% | viability, T/C [34] 33.3% | viability, T/C [35] 2.78%
1620 nM: IC50 (second compound 1 µM)
1780 nM: IC50 (second compound 0.1 µM)
1800 nM: IC50 (second compound 0.0316 µM)

Cc1nc(N2CCC3(CC2)COC(C)C3N)c(CO)nc1Sc1ccnc(N)c1Cl (stereo unspecified) + C#Cc1c(F)ccc2cc(O)cc(-c3ncc4c(N5CC6CCC(C5)N6)nc(OCC56CCCN5CC(F)C6)nc4c3F)c12
active: viability, T/C [22] 7.73% | viability, T/C [23] 8.67% | viability, T/C [24] 8.04% | viability, T/C [27] 11% | viability, T/C [28] 7.3% | viability, T/C [29] 6.6% | viability, T/C [30] 5.45% | viability, T/C [32] 8.85% | viability, T/C [33] 6.18% | viability, T/C [34] 5.37% | viability, T/C [35] 3.83% | viability, T/C [36] 3.85%
< 31.6 nM: IC50 (second compound 1 µM) | IC50 (second compound 3.16 µM) | IC50 (second compound 10 µM)
104 nM: IC50 (second compound 0.1 µM)
49.5 nM: IC50 (second compound 0.316 µM)
inactive: viability, T/C [1] 64.5% | viability, T/C [2] 50.2% | viability, T/C [3] 33.5% | viability, T/C [4] 22.3% | viability, T/C [5] 19% | viability, T/C [6] 17.5% | viability, T/C [7] 59.5% | viability, T/C [8] 51.5% | viability, T/C [9] 29.6% | viability, T/C [10] 20% | viability, T/C [11] 14.9% | viability, T/C [12] 14% | viability, T/C [13] 54.6% | viability, T/C [14] 42.8% | viability, T/C [15] 21.3% | viability, T/C [16] 13.1% | viability, T/C [17] 11.4% | viability, T/C [18] 10.8% | viability, T/C [19] 41.6% | viability, T/C [20] 25.7% | viability, T/C [21] 15.7% | viability, T/C [25] 24.1% | viability, T/C [26] 13.5% | viability, T/C [31] 10.5%
103 nM: IC50 (second compound 0.0316 µM)

NC1c2ccccc2OC12CCN(c1cnc3c(N4CCCc5ncccc54)n[nH]c3n1)CC2 (stereo unspecified) + C#Cc1c(F)ccc2cc(O)cc(-c3ncc4c(N5CC6CCC(C5)N6)nc(OCC56CCCN5CC(F)C6)nc4c3F)c12
< 31.6 nM: IC50 (second compound 0.0316 µM) | IC50 (second compound 0.1 µM) | IC50 (second compound 0.316 µM) | IC50 (second compound 1 µM) | IC50 (second compound 3.16 µM) | IC50 (second compound 10 µM)
inactive: viability, T/C [1] 34.9% | viability, T/C [2] 25.9% | viability, T/C [3] 18.1% | viability, T/C [4] 14.8% | viability, T/C [5] 17.4% | viability, T/C [6] 15.8% | viability, T/C [7] 36.4% | viability, T/C [8] 23.2% | viability, T/C [9] 16.8% | viability, T/C [10] 13.9% | viability, T/C [11] 12.5% | viability, T/C [12] 12.4% | viability, T/C [13] 28.2% | viability, T/C [14] 18.1% | viability, T/C [15] 11.8% | viability, T/C [19] 17.7% | viability, T/C [20] 11.2% | viability, T/C [25] 9.96%
active: viability, T/C [16] 8.85% | viability, T/C [17] 10.4% | viability, T/C [18] 8.35% | viability, T/C [21] 8.78% | viability, T/C [22] 7.65% | viability, T/C [23] 5.83% | viability, T/C [24] 5.6% | viability, T/C [26] 7.32% | viability, T/C [27] 5.29% | viability, T/C [28] 4.36% | viability, T/C [29] 4.13% | viability, T/C [30] 5.5% | viability, T/C [31] 7.06% | viability, T/C [32] 4.42% | viability, T/C [33] 3.79% | viability, T/C [34] 3.47% | viability, T/C [35] 4% | viability, T/C [36] 4.4%
